Test results reported in patent US10064858B2, “Methods and compositions for treating bacterial infections with iron chelators” (THE UNITED STATES OF AMERICA, AS REPRESENTED BY THE …, priority 2011, dated 2018).

Key:
[1] = system: clinical isolates of A. baumannii; assay: MIC for clinical isolates in CAMHB media (Table 3); format: cell-based; conditions: Acinetobacter baumannii
Protocol: Individual MICs were determined following the microdilution method recommended by CLSI in cationic-adjusted Mueller-Hinton Broth (CAMHB), or M9 media. […] Tests were performed in triplicate. MIC of iron chelators were determined for noscomial ESKAPE pathogens.

[2] = system: clinical isolates of A. baumannii; assay: MIC for clinical isolates in RPMI (low iron) media (Table 4); format: cell-based; design: key to MIC of Iron Chelators: NG = no growth in table 4; conditions: for MIC: Acinetobacter baumannii
Protocol: […] […] Tests were performed in triplicate. MIC of iron chelators were determined for noscomial ESKAPE pathogens.
For a number of strains, the iron chelators produced no growth of bacteria (NG).

[3] = system: A. baumannii strain AB19606; assay: Growth (OD600) with chelator, Rifampin or both; format: cell-based; conditions: CAMHB
Protocol: A. baumannii strain AB19606 was grown in CAMHB and challenged with 1.5×MIC compound 4 (Var) or 1.5×MIC Triapine (Tri) with or without 0.75×MIC Rifampin (Rif). Growth was estimated by absorbance at 600 nm (y-axis) at 0 or 24 hours.

E. coli strain EC35218 = assay: Growth (OD600) with chelator, Rifampin or both; format: cell-based; conditions: CAMHB
Protocol: E. coli strain EC35218 was grown in CAMHB and challenged with 1.5×MIC compound 4 (Var) or 1.5×MIC Triapine (Tri) with or without 0.75×MIC Rifampin (Rif). Growth was estimated by absorbance at 600 nm (y-axis) at 0 or 24 hours.

[4] = system: A. baumannii, strain AB5711; assay: Growth curves (OD600) in CAMHB with compound 4; format: cell-based
Excerpt: It should be noted that the inhibition occurred in a dose-responsive manner.

[5] = Stability in aqueous solution; format: physicochemical
[6] = AB3638, read-out: MIC of Iron Chelators
[7] = AB3785, read-out: MIC of Iron Chelators
[8] = AB3806, read-out: MIC of Iron Chelators
[9] = AB3917, read-out: MIC of Iron Chelators
[10] = AB4025, read-out: MIC of Iron Chelators
[11] = AB4026, read-out: MIC of Iron Chelators
[12] = AB4027, read-out: MIC of Iron Chelators
[13] = AB4052, read-out: MIC of Iron Chelators
[14] = AB4269, read-out: MIC of Iron Chelators
[15] = AB4448, read-out: MIC of Iron Chelators
[16] = AB4456, read-out: MIC of Iron Chelators
[17] = AB4490, read-out: MIC of Iron Chelators
[18] = AB4498, read-out: MIC of Iron Chelators
[19] = AB4795, read-out: MIC of Iron Chelators
[20] = AB4857, read-out: MIC of Iron Chelators
[21] = AB4878, read-out: MIC of Iron Chelators
[22] = AB4932, read-out: MIC of Iron Chelators
[23] = AB4957, read-out: MIC of Iron Chelators
[24] = AB4991, read-out: MIC of Iron Chelators
[25] = AB5001, read-out: MIC of Iron Chelators
[26] = AB5075, read-out: MIC of Iron Chelators
[27] = AB5197, read-out: MIC of Iron Chelators
[28] = AB5256, read-out: MIC of Iron Chelators
[29] = AB5674, read-out: MIC of Iron Chelators
[30] = AB5711, read-out: MIC of Iron Chelators
[31] = 1.5×MIC chelator in combination with 0.75×MIC Rifampin
[32] = alone: 1.5×MIC chelator or 0.75×MIC Rifampin

## OCCN1CCN(CCc2ccc(O)c3ncccc23)CC1 [Compound 4, 5-(2-(4-(2-hydroxyethyl)piperazin-1-yl)ethyl)-8-quinolinol]
[1]; AB967, read-out: MIC of Iron Chelators
  MIC: 500 µg/mL
[1]; AB2828, read-out: MIC of Iron Chelators
  MIC: 500 µg/mL
[1]; AB3340, read-out: MIC of Iron Chelators
  MIC: 500 µg/mL
[1]; AB3560, read-out: MIC of Iron Chelators
  MIC: 500 µg/mL
[1]; [6]
  MIC: 500 µg/mL
[1]; [7]
  MIC: 500 µg/mL
[1]; [8]
  MIC: 1000 µg/mL
[1]; [9]
  MIC: 500 µg/mL
[1]; AB3927, read-out: MIC of Iron Chelators
  MIC: 500 µg/mL
[1]; [10]
  MIC: 500 µg/mL
[1]; [11]
  MIC: 500 µg/mL
[1]; [12]
  MIC: 500 µg/mL
[1]; [13]
  MIC: 1000 µg/mL
[1]; [14]
  MIC: 500 µg/mL
[1]; [15]
  MIC: 500 µg/mL
[1]; [16]
  MIC: 500 µg/mL
[1]; [17]
  MIC: 500 µg/mL
[1]; [18]
  MIC: 500 µg/mL
[1]; [19]
  MIC: 500 µg/mL
[1]; [20]
  MIC: 500 µg/mL
[1]; [21]
  MIC: 500 µg/mL
[1]; [22]
  MIC: 500 µg/mL
[1]; [23]
  MIC: 500 µg/mL
[1]; [24]
  MIC: 500 µg/mL
[1]; [25]
  MIC: 500 µg/mL
[1]; [26]
  MIC: 500 µg/mL
[1]; [27]
  MIC: 500 µg/mL
[1]; [28]
  MIC: 500 µg/mL
[1]; [29]
  MIC: 500 µg/mL
[1]; [30]
  MIC: 500 µg/mL
[2]; AB967
  MIC of Iron Chelators: NG
[2]; AB2828
  MIC of Iron Chelators: NG
[2]; AB3340
  MIC of Iron Chelators: NG
[2]; AB3560
  MIC of Iron Chelators: NG
[2]; AB3927
  MIC of Iron Chelators: NG
[2]; [6]
  MIC: 64 µg/mL
[2]; [7]
  MIC: 32 µg/mL
[2]; [8]
  MIC: 32 µg/mL
[2]; [9]
  MIC: 32 µg/mL
[2]; [10]
  MIC: 32 µg/mL
[2]; [11]
  MIC: 32 µg/mL
[2]; [12]
  MIC: 32 µg/mL
[2]; [13]
  MIC: 64 µg/mL
[2]; [14]
  MIC: 32 µg/mL
[2]; [15]
  MIC: 64 µg/mL
[2]; [16]
  MIC: 32 µg/mL
[2]; [17]
  MIC: 32 µg/mL
[2]; [18]
  MIC: 64 µg/mL
[2]; [19]
  MIC: 32 µg/mL
[2]; [20]
  MIC: 64 µg/mL
[2]; [21]
  MIC: 64 µg/mL
[2]; [22]
  MIC: 125 µg/mL
[2]; [23]
  MIC: 125 µg/mL
[2]; [24]
  MIC: 8 µg/mL
[2]; [25]
  MIC: 32 µg/mL
[2]; [26]
  MIC: 64 µg/mL
[2]; [27]
  MIC: 32 µg/mL
[2]; [28]
  MIC: 125 µg/mL
[2]; [29]
  MIC: 32 µg/mL
[2]; [30]
  MIC: 64 µg/mL
[3]; [31]
  reduction of bacteria (absorbance at 600 nm, 24 hours): significant reduction in bacteria
[3]; [32]
  reduction of bacteria (absorbance at 600 nm, 24 hours): no reduction of bacteria
E. coli strain EC35218; [31]
  reduction of bacteria (absorbance at 600 nm, 24 hours): significant reduction in bacteria
E. coli strain EC35218; [32]
  reduction of bacteria (absorbance at 600 nm, 24 hours): did not result in a reduction of bacteria
[4]
  OD600 (growth curves): dramatically reduced
[5]
  stability in aqueous solution: highly stable
